Data published in US7320973B2, “Dihydrodiaryloxazepine derivative and pharmaceutical composition containing the same” (Ajinomoto Co., Inc., priority 2001, dated 2008).
Structures can show the parent of a compound that is named as a salt.

How the values were obtained:
[1] = system: 5-HTP-induced defecation (diarrhea or loose stool); assay: In vivo 5-hydroxytryptophan (5-HTP)-induced defecation model of mice; parameters: species or system mouse; conditions: oral administration 30 minutes before 5-HTP 10 mg/kg s.c., fecal score over 30 minutes
Protocol: The tests were conducted by a method of G. J. Sanger et al. (British Journal of Pharmacology, 130: 706-712, 2000).
Male SLC:ICR mice (6 weeks old) were moved to 5stainless steel cages connected together for mice. After the naturalization for at least one hour, a test compound was orally administered (n=10). 30 minutes after, 10 mg/5 mL/kg of 5-HTP or vehicle (5mL/kg of physiological saline for a group for which 5-HTP was not used) was injected subcutaneously. The state of the fecal pellets of each mouse excreted in 30 minutes immediately after the injection was observed [scored as 0 (normal fecal pellets or no fecal pellets) or 1(diarrhea or loose stool)]. The score obtained by subtracting the score of the group to which 5-HTP had not been given from the score of the group to which 5-HTP had been given was taken as 100%. The amount of a test compound for 50% control (ID50) was calculated.

[2] = system: abdominal pain threshold on colorectal distension; assay: Elevation of threshold value of abdominal pain in in vivo rat colorectal distension model; conditions: rats, oral administration
Protocol: The tests were conducted by a method of Saito et al. (Anesth. Analg. 1998; 87: 382-387).
Male Crj:CD rats (250-350 g) were used. A test compound was orally administered to them (n=8). A balloon (length: 7 cm) for dilating the colon was connected to a transducer . After fasting each rat for one day, the balloon was noninvasively inserted internally into the colorectal portion and the base of the balloon was positioned 1 cm from anus under light anesthesia with ether. Water was injected into the balloon at a rate of 0.9 ml/min until the inner pressure in the balloon reached 100 mmHg (cut off value). When the contraction of the abdominal muscle was macroscopically observed during the colon distension, the pressure in the balloon was taken as the threshold value of abdominal pain. The colon distension was conducted at intervals of at least 5 minutes.
The analgesic effect was determined according to the following formula: Analgesic effect (%)=[(threshold value of abdominal pain after treatment with test compound)−(threshold value of abdominal pain before treatment with test compound)]/[100−(threshold value of abdominal pain before treatment with test compound)]×100.
The analgesic effect was calculated as the dose of the test compound required for 50% control (ID50).

| Structure (SMILES) | ID50 (5-HTP-induced defecation) [1] [mg/kg] | ID50 (analgesic effect, threshold value of abdominal pain) [2] [mg/kg] |
| --- | --- | --- |
| CN(C)c1ccc(CCN2CCC[C@@H]2CN2c3cc(Cl)ccc3COc3ccccc32)cc1 [Example 8, (R)-3-Chloro-5,11-dihydro-5-[1-(4-dimethylaminophenethyl)pyrrolidin-2-ylmethyl]dibenzo[b,e][1,4]oxazepine dihydrochloride] | 8.3 | 2.6 |
| Fc1ccc2c(c1)OCc1ccccc1N2C[C@H]1CCCN1CCc1ccc(N2CCCC2)cc1 [Example 12, (R)-8-Fluoro-5,11-dihydro-5-[1-(4-pyrrolidinophenethyl)pyrrolidin-2-yl-methyl]dibenzo[b,e]1,4]oxazepine dihydrochloride] |  | 1.9 |
